The results in this text go back to patent US20110112184A1, “COMPOUNDS WITH GLYCIDIC STRUCTURE ACTIVE IN THE THERAPY OF SYSTEMIC AND LOCAL INFLAMMATION” (priority 2008, published 2011).

In assay [1] the test system is A549 human pneumocytes. Kind of assay: LPS-induced IL-8 production by A549 human pneumocytes. The assay is classed as cell-based. The conditions noted are these: LPS from Pseudomonas aeruginosa 100 μg/ml, compound 4 5 μg/L. The procedure:
FIG. 2B. LPS (100 μg/ml)-induced IL-8 production by A549 human pneumocytes in the absence or presence of compound (Comp) 4 (5 μg/L).
The effect of the compounds on the release of IL-8 or KC was tested upon stimulation of intestinal epithelial cells (IEC) with LPS from Salmonella enterica abortus equi. The human IEC line HT29 was used for these experiments. Cells were cultured for 18 h in medium alone or in medium additioned with different concentrations of compounds 4, 5, 6, 7, 4′ and 14 (from 50 mg/L to 5 μg/L). Then, cells were stimulated for 6 h with LPS (1 μg/ml). […] Similar experiments were performed on a human pneumocyte type II cell line (A549) using compound 4 and LPS from Pseudomonas aeruginosa.

The subject of assay [2] is mice treated with doxorubicin. Kind of assay: Acute doxorubicin-induced enterocyte injury in mice. The assay is classed as in vivo. The conditions noted are these: doxorubicin 27 mg/kg i.p. + compound 4 25 μg/kg orally; 72 h. The procedure:
(§1) FIG. 11. Serum levels of KC in untreated mice or mice submitted to acute treatment with doxorubicin or chronic treatment with doxorubicin and 5-fluorouracil. Untr=Untreated; Doxo 27 mg=Mice submitted to acute treatment with doxorubicin; Doxo 27 mg comp 4=Mice submitted to acute treatment with doxorubicin and concomitant p.o. administration of comp 4; Doxo cron=Mice submitted to chronic treatment with doxorubicin and 5-fluoruracil; Doxo cron comp 4=Mice submitted to chronic treatment with doxorubicin and 5-fluoruracil and concomitant p.o. administration of compound 4.
FIG. 12. Histology of the epithelium of the small intestine in mice after acute treatment with doxorubicin (DOXO) or acute treatment with doxorubicin and concomitant administration of compound 4 (comp 4+DOXO).
For the first model, doxorubicin was administered to mice by intraperitoneal injection (27 mg/kg). Some of the mice were administered at the same time compound 4 (25 μg/kg orally). Recovery of the blood for the determination of circulating KC levels and subsequent sacrifice of the animals were performed at 72 h after treatment.

Assay [3] concerns mice treated with doxorubicin and 5-fluoruracil. Kind of assay: Chronic doxorubicin- and 5-fluoruracil-induced enterocyte injury in mice. The assay is classed as in vivo. Here is the method:
as §1
FIG. 13. Histology of the epithelium of the small intestine in mice after chronic treatment with doxorubicin and 5-fluoruracil (DOXO+FLUO) or chronic treatment with doxorubicin and 5-fluoruracil and concomitant administration of compound 4 (comp 4+DOXO+FLUO).
For the chronic model of enterocyte injury, doxorubicin was administered 1×/week for three weeks (7 mg/kg for the first two administrations, […] for the last administration). At the same times, mice were administered also 5-fluoruracil at 100 mg/kg. Administrations of the chemotherapeutics were performed intraperitoneally. Some of the mice were treated at the same times with compound 4 (25 μg/kg, orally). Recovery of the blood for the determination of circulating KC levels and subsequent sacrifice of the animals were performed at 72 h after the last treatment. […]

Assay [4] relates to DSS-treated FVB mice. The assay can be described thus: Acute colitis (acute Crohn-like disease) induced by DSS 2% in mice. To be noted: acute model. The assay is classed as in vivo. Here is the method: FIG. 5. TNF-α levels in mice treated with DSS alone or DSS+comp 4. Untr=Untreated; DSS=Mice treated with DSS alone; DSS comp 4=Mice treated with DSS and comp 4;=Mice treated comp 4 alone.
In mice induced for acute Crohn's disease, modifications of epithelial permeability of the intestine were determined by measuring intestinal transmembrane resistance using the Ussing chamber. For this purpose, 2-months old FVB mice were administered dextran sulfate sodium (DSS) 2% in the drinking water for 7 days (Wirtz et al, 2007). […] Eventually, the serum levels of the inflammatory cytokine TNF-α were measured in mice treated with DSS alone or with DSS+4.

In assay [5] the test system is mice treated with LPS. The assay can be described thus: Serum KC levels after oral LPS in mice (diarrhoea model). The assay is classed as in vivo. The conditions noted are these: compound 4 25 μg/kg oral, then LPS 50 mg/kg oral, serum after 4 h, ELISA. The procedure: FIG. 3. Serum levels of cytokine KC from mice treated with LPS alone or LPS with comp 4. Untr=untreated; LPS=Mice treated with LPS alone; comp 4+LPS=Mice treated with comp 4+LPS; comp 4=Mice treated with comp 4 alone.
We tested whether oral pretreatment of mice with the compound 4 interferes with the increase in KC serum levels induced by LPS administration to mice. The dosage of compound 4 chosen for all in vivo experiments was 25 μg/kg. Mice (10/group) were treated orally with compound 4 (25 μg/kg), followed by oral treatment with LPS (50 mg/kg). Serum samples were collected after 4 h, and KC levels were evaluated by ELISA.
(In an ELISA, binding on a coated surface is turned into a signal by an enzyme label.)

For assay [6], the system named is Caco-2 enterocytes. The assay can be described thus: Doxorubicin-induced injury of Caco-2 enterocytes (ROS in culture medium). The assay is classed as cell-based. The conditions noted are these: Caco-2 monolayer, 3 μM doxorubicin + compound 4. Here is the method:
FIG. 10. Measurement of ROS in the cell culture medium of untreated enterocytes or enterocytes treated with doxorubicin+compound 4. Ctrl=Untreated (control) cells; Doxo=Cells treated with doxorubicin alone; Doxo comp 4=Cells treated with doxorubicin and compound 4.
Compound 4 has shown protective efficacy also in an in vitro model of chemotherapy-induced injury of enterocytes. In this model, a monolayer of Caco-2 enterocytes was treated with 3 μM doxorubicin alone or doxorubicin and 4.

Turning to `CN(C)c1cccc2c(S(=O)(=O)NCC[C@H]3O[C@H](CO)[C@@H](O)[C@H](O)[C@H]3O)cccc12` [Compound 4, 5-(Dimethylamino)-N-[2′-(α-D-glucopyranosyl)ethyl]-1-naphthalenesulphonamide], the “LPS-induced IL-8 production” value in assay [1] is listed as “significantly inhibited”. Further, in assay [2], the “Histology of the epithelium of the small intestine” value is recorded as “normal morphology” and the “circulating KC levels” value is recorded as “strongly reduced”. For the same compound, the “Histology of the small intestine” value in assay [3] (chronic doxorubicin + 5-fluoruracil + compound 4 25 μg/kg orally) is recorded as “completely normal morphology”. Moreover, the “circulating KC levels” value in assay [3] (doxorubicin 1×/week for three weeks + 5-fluoruracil 100 mg/kg i.p. + compound 4 25 μg/kg orally, 72 h after last treatment) is reported as “brought the levels back to those observed in untreated mice”. Moreover, the “Serum levels of TNF-α (increase induced by DSS 2%)” value in assay [4] (DSS 2% + compound 4) is “strongly inhibited”. Besides, the Intestinal transmembrane resistance in assay [4] (DSS 2% in drinking water 7 days + compound 4, Ussing chamber) is given as 49 Ω × cm^2. For the same compound, in assay [5], the “Serum KC levels” value is “comparable to those of untreated mice”. In addition, the “reactive oxygen species (ROS) in the cell culture medium” value in assay [6] is “complete inhibition”.
